For seven compounds, GI50 and TGI results are on record in PubChem BioAssay (NCI).

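All cell lines were grown in 96-well plates and treated with compound for 48 hours. GI50: concentration for 50% inhibition of growth. At the TGI there is no net growth.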 Some results are limits rather than exact numbers.

Among the test systems are MDA-MB-231 breast; A498 renal; SNB-19 CNS; EKVX NSCLC; BT-549 breast; NCI-H460 lung; U251 CNS; SNB-75 CNS; NCI-H522 lung; SN12C renal.
Test in all cases: NCI anticancer screen, dose series, 48 h

For the compound `O=C1C(=O)c2c(nc3ncccn23)-c2ccccc21`, the GI50 is 0.215 µM in the test with MDA-MB-231 breast; 0.484 µM in the test with A498 renal; 0.247 µM in the test with SNB-19 CNS; 0.396 µM in the test on EKVX NSCLC; 154 nM in the test on BT-549 breast; 0.227 µM with NCI-H460 lung. Besides, the GI50 was 0.316 µM in the test with U251 CNS, 0.378 µM with SNB-75 CNS, 0.232 µM in the test with NCI-H522 lung and 0.173 µM in the test with SN12C renal. The TGI in the test on MDA-MB-231 breast amounted to 0.67 µM; with A498 renal it was 1.28 µM; in the test on SNB-19 CNS it was 0.722 µM; in the test with EKVX NSCLC it was 0.954 µM; in the test on BT-549 breast it was 0.291 µM; in the test on NCI-H460 lung, 0.526 µM. In addition, the TGI was 1.16 µM in the test on U251 CNS, 0.793 µM in the test on SNB-75 CNS, 0.753 µM in the test on NCI-H522 lung and 0.325 µM in the test with SN12C renal.
For `COc1cc(/C=C/C(=O)c2cc(OC)c(OC)c(OC)c2)cc(OC)c1OC`, the GI50 is 6.89 µM in the test with MDA-MB-231 breast; 2.47 µM in the test with A498 renal; 11 µM in the test with SNB-19 CNS; 2.63 µM in the test on EKVX NSCLC; 2480 nM in the test on BT-549 breast; 1.89 µM in the test on NCI-H460 lung. In addition, the GI50 is 3.21 µM in the test with U251 CNS, 2.31 µM in the test on SNB-75 CNS, 3.09 µM with NCI-H522 lung and 4.02 µM with SN12C renal. Further, the TGI with MDA-MB-231 breast was more than 100 µM; in the test on A498 renal, 9.47 µM; in the test on SNB-19 CNS it was 27.3 µM; with EKVX NSCLC it was 21.5 µM; in the test with BT-549 breast, 9.26 µM; in the test on NCI-H460 lung it was 4.07 µM. Also, the TGI in the test on U251 CNS stood at 16.6 µM; with SNB-75 CNS, 9.41 µM; with NCI-H522 lung it was 12.1 µM; with SN12C renal it was 20.8 µM.
`Cc1[nH]nc(C(=O)Nc2n[nH]c3ccccc23)c1[N+](=O)[O-]`: the GI50 was more than 100 µM in the test with MDA-MB-231 breast; more than 76.6 µM with A498 renal; more than 100 µM with SNB-19 CNS; more than 100 µM in the test with EKVX NSCLC; 26500 nM in the test on BT-549 breast; more than 85.1 µM in the test with NCI-H460 lung. The GI50 was more than 100 µM in the test on U251 CNS, 64.1 µM in the test on SNB-75 CNS, 39.4 µM with NCI-H522 lung and more than 100 µM with SN12C renal. In addition, the TGI in the test on MDA-MB-231 breast, in the test on A498 renal, in the test with SNB-19 CNS, with EKVX NSCLC, in the test on BT-549 breast and in the test on NCI-H460 lung was more than 100 µM throughout. For the same compound, the TGI in the test with U251 CNS, in the test with SNB-75 CNS, in the test on NCI-H522 lung and in the test with SN12C renal was more than 100 µM each time.
Regarding `Cc1ccc(-n2c(-c3ccc(Cl)cc3)cs/c2=N\NC(=O)COc2n[nH]c(=O)c3ccccc23)cc1`, the GI50 is 68.4 µM in the test with MDA-MB-231 breast; more than 100 µM with A498 renal; 40 µM with SNB-19 CNS; 59.6 µM in the test with EKVX NSCLC; more than 100000 nM in the test on BT-549 breast; more than 100 µM with NCI-H460 lung. Further, the GI50 was 37.5 µM in the test on U251 CNS, 20.7 µM with SNB-75 CNS, more than 100 µM with NCI-H522 lung and 78.1 µM in the test on SN12C renal. Besides, the TGI with MDA-MB-231 breast, in the test with A498 renal, with SNB-19 CNS, in the test with EKVX NSCLC, in the test on BT-549 breast and with NCI-H460 lung was more than 100 µM in each case. The TGI in the test with U251 CNS is more than 100 µM; in the test with SNB-75 CNS it was 65.9 µM; in the test on NCI-H522 lung, more than 100 µM; in the test with SN12C renal, more than 100 µM.
For the compound `C=C1C(=O)O[C@H]2[C@H]1CC/C(COC(=O)C(=O)c1cn(C)c3ccc(OC)cc13)=C\CC[C@@]1(C)O[C@@H]21`, the GI50 in the test on MDA-MB-231 breast is 4.39 µM; in the test on A498 renal it was 6.77 µM; in the test on SNB-19 CNS, 9.07 µM; in the test with EKVX NSCLC it was 8.19 µM; with BT-549 breast, 1750 nM; in the test with NCI-H460 lung, 7.2 µM. The GI50 is 6.58 µM in the test on U251 CNS, 6.69 µM in the test on SNB-75 CNS, 5.02 µM with NCI-H522 lung and 6.1 µM with SN12C renal. Moreover, the TGI was determined as 10.6 µM with MDA-MB-231 breast; 10.1 µM with A498 renal; 21.8 µM in the test on SNB-19 CNS; 16.3 µM in the test on EKVX NSCLC; 3.28 µM with BT-549 breast; 14.4 µM in the test with NCI-H460 lung. In addition, the TGI with U251 CNS is 10.1 µM; in the test with SNB-75 CNS, 11.8 µM; in the test on NCI-H522 lung, 9.16 µM; with SN12C renal, 12.8 µM.
`O=C(CC(=O)c1ccccc1NC1=Cc2ccccc2C(=O)C1=O)C(=O)NC1=C(Cl)C(=O)c2ccccc2C1=O`: the TGI turned out to be 8.95 µM in the test on MDA-MB-231 breast; 30.3 µM with A498 renal; 16.7 µM in the test on SNB-19 CNS; 22.4 µM in the test with EKVX NSCLC; 9.14 µM in the test on BT-549 breast; 12.1 µM with NCI-H460 lung. Also, the TGI in the test with U251 CNS was 12.5 µM; in the test on SNB-75 CNS, 3.19 µM; in the test with NCI-H522 lung it was 4.79 µM; in the test on SN12C renal, 3.67 µM.
For `C[C@@]12CCC[C@@](C)(C(=O)O)C1CC[C@@]13CC(=O)[C@@](CO)(CCC12)C3` (stereo not given in full), the GI50 is more than 100 µM with MDA-MB-231 breast; more than 100 µM with A498 renal; more than 100 µM with SNB-19 CNS; more than 100 µM in the test on EKVX NSCLC; more than 100000 nM in the test on BT-549 breast; more than 100 µM in the test on NCI-H460 lung. Also, the GI50 in the test with U251 CNS, in the test on SNB-75 CNS, in the test with NCI-H522 lung and in the test on SN12C renal was more than 100 µM throughout. Also, the TGI in the test on MDA-MB-231 breast, in the test with A498 renal, in the test on SNB-19 CNS, with EKVX NSCLC, in the test on BT-549 breast and with NCI-H460 lung was more than 100 µM each time. The TGI in the test with U251 CNS, in the test on SNB-75 CNS, in the test with NCI-H522 lung and in the test on SN12C renal was more than 100 µM each time.
